From US6964766B1, “Peptides for use in immunotherapy of autoimmune diseases” (Akzo Nobel N.V., priority 1998, dated 2005)
Several values for one entry are separate records, joined by “and”; a condition that tells them apart may be missing. Equal values may be shown once. Entries after “also recorded” stand apart in the source; their conditions may differ. No end group written: not given here.

Tests used:
PBMC from RA patients [1] = assay: recognition by PBMC ([3H]thymidine incorporation, stimulation index); assay type: cell-based, human; details: Table 3b, per donor (169, 455, 447, 327)
Balb/c mice = details: single injection in the chest region, μg amounts of protein in IFA; cited from earlier work
PBMC from RA patients [2] = assay: recognition by PBMC ([3H]thymidine incorporation, stimulation index); assay type: cell-based, human
Description: Peripheral blood mononuclear cells (PBMC) were isolated from heparinized peripheral blood by standard centrifugation on Ficoll-Paque (Pharmacia, Uppsala, Sweden). Cells were suspended in wells of a 24 well plate in a concentration of 5×10^5 cells per ml. Cells were incubated in medium alone or in the presence of 10 or 50 μg/ml peptide antigen (YKL-39 (266-278)). Cultures were incubated for 6 days at 37° C. in a humidified atmosphere of 5% CO2. Cells were then suspended and 100 or 150 μl volumes of medium was distributed in 4-fold in wells of a 96-well roundbottomed plate. Cells were then pulsed with 0.5 μCi (1.85×10^4 Bq) [3H]thymidine ([3H]TdR) and 18 hr later incorporated radioactivity was measured. Results as shown in table 3 are expressed as stimulation indices (SI) (antigen-specific counts/background counts).

[3] = tested on: HLA-DRB1*0401-restricted hybridomas specific for HC gp-39 (263-275) (8B12, 14G11, 20H5); assay: stimulation of HC gp-39 (263-275)-specific T-cell hybridomas (IL-2 production); assay type: cell-based, mouse; details: presented by DRB1*0401 EBV-transformed B cells, 48 hr
Description: To test the cross reactivity of the 3 different, HC gp39-specific hybridoma cell lines with the YKL-39 or the chitotriosidase peptide, 5×10^4 hybridoma cells and 2×10^5 irradiated (12000 RAD), EBV-transformed B cells carrying the DRB1*0401 specificity were incubated in 150 μl volumes in wells of a round-bottomed microtiter plate. Peptide antigen (HC gp-39 (263-275), YKL-39 (266-278), chitotriosidase (269-282) or a control peptide) was added in 50 μl volumes to duplicate wells. Forty-eight hr later 100 μl of the culture supernatant was assayed for IL-2 production using a sandwich ELISA with Pharmingen antibodies specific for mouse IL-2.

[4] = molecular target: T1, HLA-DRB1*0401-encoded molecules (Homo sapiens, UniProt P01903+P01911, A100K/A169T/F76Y/I96L/K127E/L162R/M171V/N62H/P40V/Q125Y/R42H/S133A/S149N/S66Y/V115G/V209L/W38E); assay: competition peptide HLA-DR binding assay
T1 construct: HLA-DR4 (DRB1*0401) molecules were purified from the homozygous EBV-transformed human B lymphoblastoid cell lines Huly138IC2; endogenous in cells; host or cells: homozygous EBV-transformed human B lymphoblastoid cell line Huly138IC2

[5] = tested on: HC gp-39 (263-275) induced DTH response; assay: HC gp-39 (263-275)-specific DTH assay, tolerance induction by nasal application; assay type: in vivo, Balb/c mice; details: for tolerance: intranasal pretreatment 50, 10 or 2 micrograms, sensibilisation and challenge with HC gp-39 (263-275)
Text: FIG. 2a, 2b, 2c In vivo tolerization with HC gp-39 (263-275) or YKL-39 ([…]) • Balb/c mice were tolerized by intranasal application of 50, 10 or 2 micrograms of HC gp-39 (263-275), SEQ ID NO: 3, (FIG. 2b) or YKL-39 (266-278) (FIG. 2c) followed by immunization with HC gp-39 (263-275). Mice that were pretreated with saline or that were left untreated were included as controls (FIG. 2a).
A HC gp-39 (263-275)-specific DTH assay suitable to monitor tolerance induction with peptide antigens was developed. […] This peptide-based DTH system was used to detect modulation of the DTH response by nasal application of HC gp-39 (263-275) peptide.

Substance	SI 10 μg/ml (PBMC from RA patients [1]; 10 μg/ml antigen)	SI 50 μg/ml (PBMC from RA patients [1]; 50 μg/ml antigen)	arthritogenicity (Balb/c mice)	recognition by PBMC (in words) (PBMC from RA patients [2]; RA patients)	SI 10 μg/ml (PBMC from RA patients [2]; Table 3a, per donor (RA patients), 10 μg/ml peptide, 6 days, SI = antigen-specific counts/background counts)	SI 50 μg/ml (PBMC from RA patients [2]; Table 3a, per donor (RA patients), 50 μg/ml peptide, 6 days)	SI 10 μg/ml (PBMC from RA patients [2]; Table 3b, per donor (169, 455, 447, 327), 10 μg/ml antigen)	SI 50 μg/ml (PBMC from RA patients [2]; Table 3b, per donor (169, 455, 447, 327), 50 μg/ml antigen)	responder / non-responder (PBMC from RA patients [2]; per donor, RA patients, SI >= 5 regarded positive)	activation of T-cell hybridomas, IL-2 production (in words) [3]	binding affinity to DRB1*0401 (in words) [4]	tolerance [5]	tolerance ([5]; listed as YKL-39 266-278)	downmodulation of the DTH response (in words) ([5]; nasal application, Balb/c mice immunised with HC gp-39 (263-275) in IFA)
HC gp-39: human cartilage glycoprotein-39, a protein of 362 amino acids, target autoantigen in rheumatoid arthritis	1 and 12 and 24 and 45	1 and 19 and 44 and 95	induced a chronic joint inflammation	–	–	–	–	–	–	–	–	–	–	–
HSFTLASAETTVG [YKL-39 (266-278), HSFTLASAETTVG]	–	–	–	readily recognized	9 and 15 and <2 (3×) and 4 and 3 (2×) and 19	9 and 4 and <2 (4×) and 27 and 25 and 58	1 and 6 and 27 and 20	2 and 5 and 32 and 35	R (R = responder); also recorded: NR (NR = non-responder)	response similar to HC gp-39 (263-275)	very high affinity	yes	effective as a tolerogen	more enhanced downmodulation
